In ChEMBL document CHEMBL5543127, “Design, Synthesis, and Biological Evaluation of 2-Phenoxyalkylhydrazide Benzoxazole Derivatives as Quorum Sensing Inhibitors with Strong Antibiofilm Effect” (J Med Chem, 2024):
≈ marks a conversion by molar mass, not a printed value. Calls of active or inactive are those of the source. No cut-off for these calls is given here.

Tests used:
[1] = Inhibition of quorum sensing system in Pseudomonas aeruginosa PAO1 at logarithmic growth period assessed as inhibition of pyocyanin production at 102.4 microg/ml incubated for 18 hrs by pyocyanin inhibition assay; details: dose 102.4 µg/ml
[2] = tested on: Erythrocyte; test: Hemolytic activity in mouse RBC isolated from eye ball assessed as hemolysis at 256 microg/ml incubated for 1 hr; type: toxicity, cell-based; details: dose 256 µg/ml
[3] = tested on: Pseudomonas aeruginosa; test: Inhibition of protease in logarithmic growth phase Pseudomonas aeruginosa PAO1 assessed as inhibition rate at 102.4 microg/ml measured after 32 hrs; details: dose 102.4 µg/ml
[4] = tested on: Pseudomonas aeruginosa; test: Anti-microbial activity against penicillin-susceptible Pseudomonas aeruginosa 27853 incubated for 20 hrs By CLSI based micro-dilution method; type: functional
[5] = tested on: Bacillus subtilis; test: Anti-microbial activity against Bacillus subtilis ATCC9372 incubated for 20 hrs By CLSI based micro-dilution method; type: functional
[6] = tested on: Staphylococcus aureus; test: Anti-microbial activity against methicillin-resistant Staphylococcus aureus ATCC43300 incubated for 20 hrs By CLSI based micro-dilution method; type: functional
[7] = tested on: Pseudomonas aeruginosa; test: Induction of anti-bacterial effect in Pseudomonas aeruginosa PAO1 assessed as synergistic effect by measuring reduction in bacterial survival in presence of ciprofloxacin at 128 microg/ml measured after 24 hrs incubation relative to control; type: functional; details: dose 128 µg/ml
[8] = tested on: Pseudomonas aeruginosa; test: Anti-virulence activity against logarithmic growth phase Pseudomonas aeruginosa PAO1 assessed as inhibition of Rhamnolipid production at 102.4 microg/ml measured after 24 hrs; type: functional
[9] = tested on: Staphylococcus aureus; test: Anti-microbial activity against erythromycin-susceptible Staphylococcus aureus ATCC25923 incubated for 20 hrs By CLSI based micro-dilution method; type: functional
[10] = tested on: Pseudomonas aeruginosa; test: Antibiofilm activity against logarithmic growth phase Pseudomonas aeruginosa PAO1 assessed as inhibition of biofilm formation at 32 microg/ml incubated for 20 hrs by crystal violet staining based analysis; type: functional
[11] = tested on: Pseudomonas aeruginosa; test: Induction of anti-bacterial effect in Pseudomonas aeruginosa PAO1 assessed as synergistic effect by measuring reduction in bacterial survival in presence of clarithromycin at 16 to 128 microg/ml measured after 24 hrs incubation; type: functional, organism-based; details: dose 16-128 µg/ml
[12] = tested on: Escherichia coli; test: Anti-microbial activity against penicillin-susceptible Escherichia coli ATCC25922 incubated for 20 hrs By CLSI based micro-dilution method; type: functional
[13] = tested on: Pseudomonas aeruginosa; test: Induction of anti-bacterial effect in Pseudomonas aeruginosa PAO1 assessed as synergistic effect by measuring reduction in bacterial survival in presence of ciprofloxacin at 16 to 128 microg/ml measured after 24 hrs incubation; type: functional, organism-based; details: dose 16-128 µg/ml
[14] = tested on: Pseudomonas aeruginosa; test: Anti-microbial activity against Pseudomonas aeruginosa PAO1 incubated for 20 hrs By CLSI based micro-dilution method; type: functional
[15] = tested on: Pseudomonas aeruginosa; test: Antibiofilm activity against logarithmic growth phase Pseudomonas aeruginosa PAO1 assessed as inhibition of biofilm formation at 16 microg/ml incubated for 20 hrs by crystal violet staining based analysis; type: functional; details: for inhibition: dose 16.0 µg/ml
[16] = tested on: Pseudomonas aeruginosa; test: Induction of anti-bacterial effect in Pseudomonas aeruginosa PAO1 assessed as synergistic effect by measuring reduction in bacterial survival in presence of ciprofloxacin measured after 24 hrs incubation; type: functional, organism-based; details: dose 8-128 µg/ml
[17] = tested on: Bacillus pumilus; test: Anti-microbial activity against Bacillus pumilus CMCC63202 incubated for 20 hrs By CLSI based micro-dilution method; type: functional
[18] = tested on: Pseudomonas aeruginosa; test: Induction of anti-bacterial effect in Pseudomonas aeruginosa PAO1 assessed as synergistic effect by measuring reduction in bacterial survival in presence of clarithromycin measured after 24 hrs incubation; type: functional, organism-based; details: dose 8-128 µg/ml
[19] = tested on: Pseudomonas aeruginosa; test: Anti-bacterial effect in Pseudomonas aeruginosa PAO1 assessed as reduction in bacterial survival by measuring inhibition rate at 0.4 microg/ml measured after 24 hrs incubation relative to control; type: functional
[20] = tested on: Pseudomonas aeruginosa; test: Induction of morphological changes in biofilm of Pseudomonas aeruginosa PAO1 assessed as biofilm damage at 102.4 microg/ml measured after 24 hrs by scanning electron microscopy; type: functional, organism-based; details: dose 102.4 µg/ml
[21] = tested on: Pseudomonas aeruginosa; test: Antibacterial activity against Pseudomonas aeruginosa PAO1 at logarithmic growth phase assessed as growth inhibition at 153.6 microg/ml measured upto 25 hrs by growth curve assay; type: functional, organism-based; details: dose 153.6 µg/ml
[22] = tested on: Pseudomonas aeruginosa; test: Antibacterial activity against Pseudomonas aeruginosa 27853 at logarithmic growth phase assessed as growth inhibition at 153.6 microg/ml measured upto 25 hrs by growth curve assay; type: functional, organism-based; details: dose 153.6 µg/ml
[23] = Inhibition of quorum sensing system in Pseudomonas aeruginosa PAO1- rhlA-gfp assessed as reduction in fluorescence intensity measured upto 12 hrs by GFP reporter strain assay; details: dose 32-128 µg/ml
[24] = tested on: Pseudomonas aeruginosa; test: In vivo induction of anti-bacterial effect in Pseudomonas aeruginosa PAO1 infected in Kunming mouse assessed as synergistic effect by measuring reduction in bacterial survival in presence of 15 mg/kg ciprofloxacin at 25 mg/kg, ip measured after 1 hr incubation; type: functional, organism-based
[25] = tested on: Pseudomonas aeruginosa; test: Induction of cell morphological change in Pseudomonas aeruginosa PAO1 at 102.4 microg/ml measured after 24 hrs by scanning electron microscopy; type: functional, organism-based; details: dose 102.4 µg/ml
[26] = tested on: Pseudomonas aeruginosa; test: Induction of cell wall rupture in Pseudomonas aeruginosa PAO1 at 102.4 microg/ml measured after 24 hrs by scanning electron microscopy; type: functional, organism-based; details: dose 102.4 µg/ml
[27] = Inhibition of quorum sensing system in Pseudomonas aeruginosa PAO1-lasB-gfp assessed as reduction in fluorescence intensity measured upto 12 hrs by GFP reporter strain assay; details: dose 32-128 µg/ml
[28] = Inhibition of quorum sensing system in Pseudomonas aeruginosa PAO1-pqsA-gfp assessed as reduction in fluorescence intensity measured upto 12 hrs by GFP reporter strain assay; details: dose 32-128 µg/ml
[29] = tested on: Pseudomonas aeruginosa; test: Inhibition of swarming movement of Pseudomonas aeruginosa PAO1 assessed as movement state of bacterial clusters after 24 hrs by swarming motility assay; type: functional, organism-based; details: dose 25.6-102.4 µg/ml
[30] = tested on: Pseudomonas aeruginosa; test: In vivo anti-bacterial effect in Pseudomonas aeruginosa PAO1 infected in Kunming mouse assessed as reduction in bacterial survival at 25 mg/kg, ip measured after 1 hr incubation; type: functional, organism-based
[31] = Inhibition of quorum sensing system in Pseudomonas aeruginosa PAO1-gfp assessed as reduction in fluorescence intensity at 32 to 128 microg/ml measured upto 12 hrs by GFP reporter strain assay; details: dose 32-128 µg/ml
[32] = tested on: Pseudomonas aeruginosa; test: In vivo induction of anti-bacterial effect in Pseudomonas aeruginosa PAO1 infected in Kunming mouse assessed as synergistic effect by measuring reduction in bacterial survival in presence of 15 mg/kg ciprofloxacin at 5 mg/kg, ip measured after 1 hr incubation relative to ciprofloxacin alone; type: functional, organism-based

SMILES | inhibition [1] | Activity [2] | inhibition [3] | MIC [4] [µg/mL] | MIC [5] [µg/mL] | MIC [6] [µg/mL] | Activity [7] [%] | MIC [9] [µg/mL] | inhibition at 32 µg/mL [10] [%] | Activity [11] | MIC [12] [µg/mL] | Activity [13] | MIC [14] [µg/mL] | inhibition [15] | Activity [16] | MIC [17] [µg/mL] | Activity [18] | Activity [21] | Activity [22] | other results
O=C(CCCCOc1cccc(F)c1)NNc1nc2ccccc2o1 | Active | Non-Toxic | inactive | 512 (≈ 1490 µM) | > 512 | > 512 | >90 | 512 (≈ 1490 µM) | > 25.4 | Active | > 512 | Active | > 512 | Active | Dose-Dependent Effect | > 512 | Dose-Dependent Effect | – | – | inhibition at 102.4 µg/mL [8]: 52.1%
O=C(O)c1cn(C2CC2)c2cc(N3CCNCC3)c(F)cc2c1=O [CIPROFLOXACIN] | – | – | – | – | – | – | – | – | – | – | – | – | – | – | – | – | – | – | – | inhibition at 0.4 µg/mL [19]: 42%
O=C(CCCCOc1ccc(Cl)cc1)NNc1nc2ccccc2o1 | Active | Non-Toxic | inactive | 512 (≈ 1420 µM) | 512 (≈ 1420 µM) | 512 (≈ 1420 µM) | >90 | 128 (≈ 356 µM) | > 25.4 | Active | > 512 | Active | > 512 | Active | Dose-Dependent Effect | > 512 | Dose-Dependent Effect | – | – | –
CC[C@H]1OC(=O)[C@H](C)[C@@H](O[C@H]2C[C@@](C)(OC)[C@@H](O)[C@H](C)O2)[C@H](C)[C@@H](O[C@@H]2O[C@H](C)C[C@H](N(C)C)[C@H]2O)[C@](C)(O)C[C@@H](C)CN(C)[C@H](C)[C@@H](O)[C@]1(C)O [AZITHROMYCIN] | – | – | – | 16 (≈ 21.4 µM) | 0.25 (≈ 0.334 µM) | 256 (≈ 342 µM) | – | 0.25 (≈ 0.334 µM) | – | – | 128 (≈ 171 µM) | – | 256 (≈ 342 µM) | – | – | 0.25 (≈ 0.334 µM) | – | – | – | Activity [20]: Active
O=C(CCCOc1ccc(C(F)(F)F)cc1)NNc1nc2ccccc2o1 | inactive | Non-Toxic | 30% | 256 (≈ 675 µM) | 512 (≈ 1350 µM) | 256 (≈ 675 µM) | – | 256 (≈ 675 µM) | > 25.4 | – | > 512 | – | > 512 | Active | Dose-Dependent Effect | > 512 | Dose-Dependent Effect | inactive | inactive | inhibition at 102.4 µg/mL [8]: > 40%
O=C(CCCCOc1ccc(F)cc1)NNc1nc2ccccc2o1 | 53.6% | Non-Toxic | inactive | 512 (≈ 1490 µM) | > 512 | > 512 | >90 | > 512 | > 25.4 | Active | > 512 | Active | > 512 | Active | Dose-Dependent Effect | > 512 | Dose-Dependent Effect | – | – | –
O=C(COc1ccc(F)cc1)NNc1nc2ccccc2o1 | 43.6% | Non-Toxic | 10% | 512 (≈ 1700 µM) | 512 (≈ 1700 µM) | > 512 | >90 | > 512 | > 76.6 | Active | > 512 | Active | 512 (≈ 1700 µM) | – | Dose-Dependent Effect | > 512 | Dose-Dependent Effect | inactive | inactive | inhibition [23]: Dose-Dependent Effect; Activity [24]: Active; Activity [25]: inactive; Activity [20]: Active; Activity [26]: inactive; inhibition [27]: Dose-Dependent Effect; inhibition at 16 µg/mL [15]: > 50%; inhibition [28]: Dose-Dependent Effect; inhibition [29]: Dose-Dependent Effect; Activity [30]: inactive; inhibition [31]: Dose-Dependent Effect; Activity [32]: Active
CCCCCCCCCCC(=O)N/N=c1\sc2ccccc2n1C | – | Non-Toxic | > 20% | > 512 | > 512 | > 512 | >90 | > 512 | > 25.4 | Active | > 512 | Active | > 512 | Active | Dose-Dependent Effect | > 512 | Dose-Dependent Effect | inactive | inactive | –
